Common to all, as to assay type: in vivo
The nature of test [1]: Single-dose oral administration of free fatty acids to SD rats: food intake. Particulars: male SD rats. As to the method:
Using a 1.5% (by weight) aqueous solution of a fatty acid ester of glycerol (RYOTO® POLYGLYESTER; product of Mitsubishi-Kagaku Foods Corporation) as a solvent, a free fatty acid form of palmitoleic acid (C16:1), a free fatty acid form of palmitic acid (C16:0), a free fatty acid form of oleic acid (C18:1), a free fatty acid form of lauric acid (C12:0), a free fatty acid form of decenoic acid (C10:1), and a free fatty acid form of linoleic acid (C18:2), all being products of Sigma, were added to the solvent and uniformly emulsified by sonication in an ice bath to thereby prepare dosing samples.
Male Sprague-Dawley rats (hereinafter referred to as SD rats) were used in the experiment. Nine-week-old SD rats (Japan SLC, Inc.) were purchased and preliminarily reared for a week in individual cages. During the preliminary rearing period, the animals were allowed free access to the solid feed Labo MR Stock (Nosan Corporation) and distilled water through water bottles.
After the preliminary rearing, the 10-week-old SD rats were divided into the following seven groups (10 animals per group) considering their body weight: a control group administered with only the solvent (hereinafter referred to as “control group”); a group administered with palmitoleic acid (C16:1) (hereinafter “C16:1 administered group”); a group administered with palmitic acid (C16:0) (hereinafter “C16:0 administered group”); a group administered with oleic acid (C18:1) (hereinafter “C18:1 administered group”); a group administered with lauric acid (C12:0) (hereinafter “C12:0 administered group”); a group administered with decenoic acid (C10:1) (hereinafter “C10:1 administered group”); and a group administered with linoleic acid (C18:2) (hereinafter “C18:2 administered groups”); these groups of rats were subjected to the main test. In the main test, the solvent or each fatty acid under test was orally administered in a single dose through a gastric tube on the very day of the experiment. To the control group of SD rats, the solvent was orally administered at a dose of 10 mL/kg per animal. The test subjects, C16:1, C16:0, C18:1, C12:0, C10:1 and C18:2, each taken in an amount of 150 mg or 500 mg, were added to 10 mL of the solvent and emulsified; the emulsion was orally administered to the SD rats in a dose of 10 mL/kg per animal and a measurement was conducted both 30 minutes and an hour later. The amount of food intake (the amount of food supplied immediately after the dosing of sample minus the amount of food at a specified time after the dosing of sample) was measured both 30 minutes and an hour after oral administration of the test sample.

The next test has as its system CCK mRNA. Description: Small intestine CCK mRNA expression level in SD rats after single oral dose (real-time PCR). The settings on record: male SD rats; an hour after single oral dose 500 mg/kg; versus control group (FIG. 14). The method, then:
(§1) Using a 1.5% (by weight) aqueous solution of a fatty acid ester of glycerol (RYOTO® POLYGLYESTER; product of Mitsubishi-Kagaku Foods Corporation) as a solvent, a free fatty acid form of palmitoleic acid (C16:1) and a free fatty acid form of oleic acid (C18:1), both being products of Sigma, were added to the solvent and uniformly emulsified by sonication in an ice bath to thereby prepare dosing samples.
(§2) Male Sprague-Dawley rats (hereinafter referred to as SD rats) were used in the test. Nine-week-old SD rats (Japan SLC, Inc.) were purchased and preliminarily reared for a week in individual cages. […]
(§3) After the preliminary rearing, the 10-week-old SD rats were divided into the following three groups (10 animals per group) considering their body weight: a control group administered with only the solvent (hereinafter referred to as “control group”); a group administered with palmitoleic acid (C16:1) (hereinafter “C16:1 administered group”); and a group administered with oleic acid (C18:1) (hereinafter “C18:1 administered group”); these groups of rats were subjected to the main test. […] With the level of gene expression in the control group taken as unity, the relative expression levels of respective genes in the C16:1 administered group or 18:1 administered group were calculated. […]
On the technique in general: In qPCR the cycle at which signal appears reflects the starting amount.

Test [2] can be described thus: Long-term oral administration of free fatty acids to KKAy mice: food intake and body weight. Particulars: male KKAy mice. The method, then: Using a 1.5% (by weight) aqueous solution of a fatty acid ester of glycerol (RYOTO®POLYGLYESTER; product of Mitsubishi-Kagaku Foods Corporation) as a solvent, a free fatty acid form of palmitoleic acid (C16:1), a free fatty acid form of palmitic acid (C16:0), a free fatty acid form of gadoleic acid (C20:1), and a free fatty acid form of erucic acid (C22:1), all being products of Sigma with purities of 99% and more, were added to the solvent and uniformly emulsified by sonication in an ice bath to thereby prepare dosing samples.
Male, spontaneously diabetic model mice KKAy/Ta (hereinafter referred to as KKAy mice) were used in the test. Five-week-old KKAy mice (CLEA Japan, Inc.) were purchased and preliminarily reared for a week in individual cages. During the preliminary rearing period, the animals were allowed free access to the solid feed Labo MR Stock (Nosan Corporation) and distilled water through water bottles.
After the preliminary rearing, the 6-week-old KKAy mice were divided into the following five groups (10 animals per group) considering their body weight: a control group administered with only the solvent (hereinafter referred to as “control group”); a group administered with palmitoleic acid (C16:1) (hereinafter “C16:1 administered group”); a group administered with palmitic acid (C16:0) (hereinafter “C16:0 administered group”); a group administered with gadoleic acid (C20:1) (hereinafter “C20:1 administered group”); and a group administered with erucic acid (C22:1) (hereinafter “C22:1 administered group”); these groups of mice were subjected to the main test. In the main test, the mice of each group were reared for 4 weeks under the environment of light (12 hr) and dark (12 hr) cycles as they were allowed free access to the powdered feed Labo MR Stock (Nosan Corporation) and distilled water through water bottles. In the process, the solvent or each fatty acid under test was orally administered through a gastric tube at 10 a.m. every day. […]
During the 4-week rearing period, the amount of food supplied was measured at days 1, 5, 9, 12, 16, 19, 23 and 26 after dosing and the amount of leftover was measured on the next day, with the respective measurements being conducted for each feeder. The amount of daily food intake was calculated from the difference between the values for two consecutive measurements. The “average food intake” is the average of the food intakes as measured on the respective days of measurement. […] The percent body weight gain was calculated by the formula [(final body weight−initial body weight)/initial body weight]×100. The “final body weight” is the body weight as measured after the end of the 4-week rearing period whereas “initial body weight” is the body weight as measured at the start of the test.

Another test has as its system cholecystokinin (CCK). Description: Blood cholecystokinin (CCK) level in SD rats after single oral dose (ELISA). The settings on record: male SD rats, versus control group (FIG. 13). As to the method:
as §1, §2, §3
For orientation: In an ELISA, binding on a coated surface is turned into a signal by an enzyme label.

Setting [3] is: an hour after single oral dose 150 or 500 mg/kg, comparison with other fatty acids, versus control group (FIG. 11).

For `CCCCC/C=C\C/C=C\CCCCCCCC(=O)O` [C18:2, linoleic acid, reference compound], the food intake result in test [1] (setting [3]) is given as “no significant drops”.
On the same count and under the same terms, under “decenoic acid [C10:1, reference compound]” stands “no significant drops”.
For the molecule `CCCCCC/C=C\CCCCCCCC(=O)O` [C16:1, palmitoleic acid], the “small intestine CCK mRNA expression level” value in the test on CCK mRNA is listed as “increased significantly”. The food intake result is given as “significant drops in the food intake” in test [2] (300 mg in 10 mL solvent, 10 mL/kg oral every day, 4 weeks, compared with control group (FIGS. 1 and 2)); “significant drop in food intake” in test [1] (30 minutes after single oral dose 500 mg/kg, compared with control group and C16:0 administered group (FIGS. 5 and 6)); “significant drops in food intake” in test [1] (30 minutes after single oral dose 150 or 500 mg/kg, compared with control group and C18:1 administered group (FIGS. 8-9)); “significant drop in food intake” in test [1] (an hour after single oral dose 500 mg/kg, compared with control group and C16:0 administered group (FIGS. 5 and 6)); “significant drops in food intake” in test [1] (an hour after single oral dose 150 or 500 mg/kg, compared with control group and C18:1 administered group (FIGS. 8, 10)); “significant drops in food intake” in test [1] (setting [3]). The “percent body weight gain” value in test [2] (4 weeks after administration, compared with control group (FIG. 4)) is on record as “significant drop in the percent body weight gain”. Moreover, the “daily averages for the amount of food intake” value in test [2] (daily oral administration, 4 weeks, FIG. 2, P<0.05) was “significant drop in the amount of food intake”. Moreover, in test [2] (daily oral administration, second to fourth week of dosing, compared with control group (FIG. 3)), the body weight result is “significant drop in body weight”. Besides, in the test on cholecystokinin (CCK) (an hour after single oral dose 500 mg/kg), the “blood CCK level” value is on record as “increased significantly”.
In the case of `CCCCCCCCCCCC(=O)O` [C12:0, lauric acid, reference compound], the food intake entry in test [1] (setting [3]) is “no significant drops”.
As for `CCCCCCCC/C=C\CCCCCCCC(=O)O` [oleic acid, reference compound], the “blood CCK level” value with cholecystokinin (CCK) (an hour after single oral dose 150 or 500 mg/kg) is “no significant elevation”.
With `CCCCCCCCCCCCCCCC(=O)O` [C16:0, palmitic acid, reference compound], the “food intake (test for dose-dependency)” value in test [1] (30 minutes after single oral dose 50, 150 or 500 mg/kg, compared with control group and C16:0 administered group (FIG. 7)) is listed as “decreased significantly in a dose-dependent manner”.

These data come from patent US20160374981A1, “ANORECTIC AGENT” (Nippon Suisan Kaisha, Ltd., priority 2012, published 2016).
